Test results taken from US20260232834A1, “CYTOTOXICITY TARGETING CHIMERAS FOR ANTIBODY-DRUG CONJUGATES AND BISPECIFIC ANTIBODIES” (GLAXOSMITHKLINE INTELLECTUAL PROPERTY DEVELOPMENT LIMITED, priority 2023, published 2026).

Tested on: PSMA-expressing cells (LNCAP)
Test: Antibody-drug conjugate (ADC) cell killing assay, PSMA-expressing cells (CellTiter Glo)
Assay type: cell-based
Conditions: 100 nM ADC plus serial diluted PSMA targeted CyTaC (max 20 μM), 48 hours, FIG. 3
Excerpt: An antibody-drug conjugate (ADC) cell killing assay was developed to screen cotinine targeted ADCs in a 384-well plate format. This assay utilized (i) an anti-cotinine antibody having a heavy chain sequence of SEQ ID NO: 9 and a light chain sequence of SEQ ID NO: conjugated with Deruxtecan and (ii) a Prostate Specific Membrane Antigen (PSMA) Cytotoxicity Targeting Chimera (CyTaC) to target PSMA expressing cells for death. The structures of the ADC and PSMA targeted CyTaC used in this experiment are shown below:
To screen ADCs, 10,000 PSMA-expressing cells (LNCAP) or 10,000 non-expressing cells (CHO) in media (RPMI 1640 (Gibco) containing 10% fetal bovine serum (Gibco)) were transferred to a 384-well plate (Greiner Bio-One). To each well containing cells, 100 nM ADC was added. Next, serial diluted PSMA targeted CyTaC (maximum concentration of 20 μM) was added to appropriate wells. The plates were then incubated for 48 hours at 37° C. with 5% CO2. Following the 48 hour incubation, an equal volume of CellTiter Glo (Promega) was added to each well and the plates were read on a PheraStar Plate Reader (BMG) to measure cell viability via Luminescence signal. Signal: background was calculated by dividing the signal of a test well by the signal obtained when no CyTaC was added. The % cell death was calculated by: (1-(test well signal/no CyTaC signal))*100. […]

**Q.** With `CN1C(=O)C[C@H](C(=O)NCCO[C@H]2CC[C@H](OCCCC(=O)N[C@H]3CC[C@H](C(=O)N[C@@H](Cc4ccc5ccccc5c4)C(=O)NCCCC[C@H](NC(=O)N[C@@H](CCC(=O)O)C(=O)O)C(=O)O)CC3)CC2)[C@H]1c1cccnc1` [PSMA targeted CyTaC] as the molecule, how does the “ADC mediated cell killing (% cell death)” value read?
**A.** ADC mediated cell killing of PSMA expressing cells
